Assay results: article PMC6947424, “New Targeted Gold Nanorods for the Treatment of Glioblastoma by Photodynamic Therapy” (Journal of Clinical Medicine, 2019)
Residues, ends and D or L forms follow the SMILES beside them. *: point of attachment. Pyropheophorbide(a) = C=Cc1c(C)c2cc3nc(c4c5[nH]c(cc6nc(cc1[nH]2)C(C)=C6CC)c(C)c5C(=O)C4)[C@@H](CCC(=O)*)[C@@H]3C; Hexanoyl(6-maleimido) = O=C1C=CC(=O)N1CCCCCC(=O)*

Columns and labels:
[1] = Estimation of PS or peptide loading / molar extinction coefficient; assay type: physicochemical; conditions: water, 381 nm, from calibration curve
Experimental: The loading of the PS onto the AuNRs was estimated relying on the molar extinction coefficient (ε) calculated for the MI-K(Pyro)DKPPR-OH conjugate. A calibration curve was developed based on the different concentrations of the conjugate, in water, that correspond to different optical densities (OD). The ε was determined using Beer Lambert’s Law at 381 nm, which constitutes the wavelength of the Soret band of Pyro in water. (3) A = εLC where A, ε, L and C stand for the absorption (OD), molar absorptivity (extinction, L·mol^−1·cm^−1), length (cm) and concentration (mol·L^−1).
The concentration of Pyro in AuNRs@PEG-MI-K(Pyro)DKPPR-OH was calculated for a mass concentration of 1 mg·mL^−1. Moreover, the concentration of the peptide was also determined, as only 1 peptide unit is conjugated to 1 PS molecules. On this basis, the amount of peptide was also estimated to 1 mg·mL^−1 of the functionalized AuNRs.

[2] = tends to aggregate easily; ref [3],[4],[14],[86]; cited from earlier work
[3] = in methanol; ref [16]; cited from earlier work
Experimental: Fluorescence quantum yields (Φf) were determined using a tetraphenyl porphyrin (TPP) solution as the fluorescence standard (Φf = 0.11 in toluene, taking into account solvent refractive index and absorption efficiencies. For the direct determination of ^1O2 quantum yield (ΦΔ), excitation was performed with a Xe-arc, the light was separated in a SPEX 1680, 0.22 µm double monochromator. Detection at 1270 nm was carried out through a PTI S/N 1565 monochromator and the emission was monitored by a liquid nitrogen cooled Ge-detector (EO-817L, North Coast Scientific Co, OH, USA). Rose Bengal (R ... || These findings are also consistent with the Φf value of Pyro reported by other authors (Φf = 0.3 and in methanol). […] This property can serve in the ...

SMILES	molar extinction coefficient (ε) [1]	solubility in biological media [2]	Φf (fluorescence quantum yield) [3]
C=Cc1c(C)c2cc3nc(c4c5[nH]c(cc6nc(cc1[nH]2)C(C)=C6CC)c(C)c5C(=O)C4)[C@@H](CCC(=O)NCCCC[C@H](NC(=O)CCCCCN1C(=O)C=CC1=O)C(=O)N[C@@H](CC(=O)O)C(=O)N[C@@H](CCCCN)C(=O)N1CCC[C@H]1C(=O)N1CCC[C@H]1C(=O)N[C@@H](CCCNC(=N)N)C(=O)O)[C@@H]3C [MI-K(Pyro)DKPPR-OH] ({Hexanoyl(6-maleimido)}-K(Pyropheophorbide(a))DKPPR-OH)	64012 L/mol/cm		
C=Cc1c(C)c2cc3nc(c4c5[nH]c(cc6nc(cc1[nH]2)C(C)=C6CC)c(C)c5C(=O)C4)[C@@H](CCC(=O)O)[C@@H]3C [Pyro, pyropheophorbide-a, reference compound]		poorly soluble in biological media	0.3
